Results reported in patent US9040663B2, “Melanocortin receptor-specific peptides” (AstraZeneca AB, priority 2009, dated 2015).
“And” between values parts separate entries of the source, which are not always exact repeats. Equal values may be shown once. Read-outs that look alike come from different tables or passages of the source.

Columns and labels:
[1] = Induction of penile erection; conditions: male rats; for Total number of PE/rat 0-1 h: mean ± SEM; for % Responders: rats showing at least one erection
Description: 7.5 Induction of Penile Erection.
The ability of peptides of the present invention to induce penile erection (PE) in male rats was evaluated with selected peptides. Male Sprague-Dawley rats weighing 250-300 g were kept on a 12 hour on/off light cycle with food and water ad libitum. All behavioral studies were performed between 9 a.m. and 4 p.m.
Corresponding vehicle controls (3.2% mannitol/50 mM Tris buffer) were run in parallel.

[2] = Food intake and body weight change; type: in vivo, Sprague-Dawley rats; conditions: male rats, 1.0 mg/kg s.c., mean ± SEM; for FI 0-4 h / FI 0-24 h: food intake
Description: 7.4 Food Intake and Body Weight Change.
Change in food intake and body weight was evaluated for selected peptides administered by subcutaneous injection route. Male Sprague-Dawley rats were obtained from Hilltop Lab Animals, Inc. (Scottdale, Pa.). Animals were individually housed in conventional polystyrene hanging cages and maintained on a controlled 12 hour on/off light cycle. Water and pelleted food (ProLab RMH 2500, W.F. Fisher & Son Inc.) was provided ad libitum. The rats were dosed subcutaneously with vehicle (3.2% mannitol/50 mM Tris buffer) or selected peptides (1.0 mg/kg). The changes in food intake for the 4 and 24 hour periods after dosing and the changes in body weight for the 24 hour period after dosing were determined. The changes in body weight and food intake for the 48 hour and 72 hour periods after dosing was also measured to determine reversal of changes in body weight and food intake effects back to baseline levels (not shown).

[3] = target: T1, hMC4-R (Homo sapiens (Human), UniProt P32245); test: High and low density hMC4-R functional assay (cAMP, HEK293-T-REx-MC4-R cells); type: cell-based; conditions: for Emax: NDP-α-MSH = 100%
[4] = target: T1, hMC4-R; test: Competitive inhibition binding assay using [I125]-NDP-α-MSH, hMC4-R; conditions: membranes of HEK-293 cells expressing recombinant hMC4-R, read-out: MC4-R Ki
[5] = target: MC1-R; test: Competitive inhibition binding assay using [I125]-NDP-α-MSH, MC1-R; conditions: membranes of B-16 mouse melanoma cells (endogenous MC1-R), in some instances HEK-293 hMC1-R
Outline: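 Radioligand displacement on membranes from B-16 mouse melanoma cells (endogenous MC1-R) or HEK-293 expressing recombinant hMC1-R, with 0.1 nM [I125]-NDP-α-MSH and increasing peptide concentrations in HEPES pH 7.5 buffer, 60 min at 37° C.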

[6] = 0.1 ng/mL Doxycycline (low density hMC4-R system)
[7] = 0.1 ng/mL Doxycycline (low density hMC4-R system), read-out: Intrinsic Activity (%)
[8] = 10 ng/mL Doxycycline (high density hMC4-R system)
[9] = 10 ng/mL Doxycycline (high density hMC4-R system), read-out: Intrinsic Activity (%)

T1 sequence (P32245 whole entry): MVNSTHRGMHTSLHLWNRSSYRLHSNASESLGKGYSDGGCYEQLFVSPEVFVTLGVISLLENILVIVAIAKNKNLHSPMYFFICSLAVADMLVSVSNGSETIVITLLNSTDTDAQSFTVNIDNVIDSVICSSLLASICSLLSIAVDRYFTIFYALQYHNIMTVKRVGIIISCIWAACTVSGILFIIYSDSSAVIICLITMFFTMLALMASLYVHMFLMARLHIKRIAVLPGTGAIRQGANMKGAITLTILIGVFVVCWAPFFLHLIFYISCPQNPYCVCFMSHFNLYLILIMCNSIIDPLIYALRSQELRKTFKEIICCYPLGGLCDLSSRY

SMILES | Total number of PE/rat 0-1 h ([1]; 3.0 mg/kg s.c.) | % Responders ([1]; 3.0 mg/kg s.c.) [%] | FI 0-4 h [2] | FI 0-24 h [2] | Emax ([3]; Table 1, mean values, 0.1 ng/mL Doxycycline (low density hMC4-R system), read-out: Intrinsic activity (%)) [%] | Ki [4] [nM] | Ki [5] [nM] | Total number of PE/rat 0-1 h ([1]; 1.0 mg/kg s.c.) | % Responders ([1]; 1.0 mg/kg s.c.) [%] | BW change 0-24 h ([2]; body weight) [g] | EC50 [3, 6] [nM] | Emax [3, 7] [%] | EC50 [3, 8] [nM] | Emax [3, 9] [%]
CC(=O)N[C@@H](CCCNC(=N)N)C(=O)N[C@H]1CCC(=O)NCCC[C@@H](C(=O)O)NC(=O)[C@H](Cc2c[nH]c3ccccc23)NC(=O)[C@H](CCCNC(=N)N)NC(=O)[C@@H](Cc2ccccc2)NC(=O)[C@H](CCN)NC1=O [Ref Ex 2, Ac-Arg-cyclo(Glu-Dab-D-Phe-Arg-Trp-Orn)-OH, reference compound] | 6.0 ± 0.44 | 100 | 3.17 ± 0.42 g and 4.41 ± 0.48 g and 2.80 ± 0.27 g | 19.98 ± 0.60 g and 20.84 ± 1.01 g and 21.81 ± 1.04 g | 92 | – | – | – | – | – | – | – | – | –
CC(=O)N[C@@H](CCCNC(=N)N)C(=O)N[C@H]1CCC(=O)NCCC[C@@H](C(N)=O)NC(=O)[C@H](Cc2c[nH]c3ccccc23)NC(=O)[C@H](CCCNC(=N)N)NC(=O)[C@@H](Cc2ccc(F)cc2)NC(=O)[C@@H]2CCCN2C1=O [Example 67, Ac-Arg-cyclo(Glu-Pro-D-Phe(4-F)-Arg-Trp-Orn)-NH2] | 3.3 ± 1.0 | 100 | 4.20 ± 0.66 g | 21.51 ± 1.27 g | – | 5 | 130 | 2.3 ± 0.42 | 86 | -0.05 ± 0.39 | 1 | 38 | 0.14 | 99
CC(=O)N[C@@H](CCCNC(=N)N)C(=O)N[C@H]1CCC(=O)NCCC[C@@H](C(N)=O)NC(=O)[C@H](Cc2c[nH]c3ccccc23)NC(=O)[C@H](CCCNC(=N)N)NC(=O)[C@@H](Cc2ccc(F)cc2)NC(=O)[C@H](CC(N)=O)NC1=O [Example 69, Ac-Arg-cyclo(Glu-Asn-D-Phe(4-F)-Arg-Trp-Orn)-NH2] | – | – | – | – | – | 3 | 150 | – | – | – | 0.25 | 76 | 0.095 | 92
CC(=O)N[C@@H](CCCNC(=N)N)C(=O)N[C@H]1CCC(=O)NCCC[C@@H](C(N)=O)NC(=O)[C@H](Cc2c[nH]c3ccccc23)NC(=O)[C@H](CCCNC(=N)N)NC(=O)[C@@H](Cc2ccc(Cl)c(Cl)c2)NC(=O)[C@H](CCN)NC1=O [Example 5, Ac-Arg-cyclo(Glu-Dab-D-Phe(3,4-diCl)-Arg-Trp-Orn)-NH2] | – | – | – | – | – | 0.055 | 0.2 | – | – | – | – | 5 | 0.38 | 92
CC(=O)N[C@H](CCCNC(=N)N)C(=O)N[C@H]1CCCNC(=O)CC[C@@H](C(N)=O)NC(=O)[C@H](Cc2c[nH]c3ccccc23)NC(=O)[C@H](CCCNC(=N)N)NC(=O)[C@@H](Cc2ccc(C#N)cc2)NC(=O)[C@H](Cc2c[nH]cn2)NC1=O [Example 52, Ac-D-Arg-cyclo(Orn-His-D-Phe(4-CN)-Arg-Trp-Glu)-NH2] | – | – | – | – | – | 0.6 | 6 | – | – | – | 0.325 | 31 | 0.2 | 99
CC(=O)N[C@@H](CCCNC(=N)N)C(=O)N[C@H]1CCC(=O)NCCC[C@@H](C(N)=O)NC(=O)[C@H](Cc2c[nH]c3ccccc23)NC(=O)[C@H](CCCNC(=N)N)NC(=O)[C@@H](Cc2ccccc2Cl)NC(=O)[C@H](Cc2cccc(C(N)=O)c2)NC1=O [Example 48, Ac-Arg-cyclo(Glu-Phe(3-C(═O)—NH2)-D-Phe(2-Cl)-D-Phe-Arg-Trp-Orn)-NH2] | – | – | – | – | – | 15 | 545 | – | – | – | – | 6 | 4 | 93
CC(=O)N[C@@H](CCCNC(=N)N)C(=O)N[C@H]1CCC(=O)NCCC[C@@H](C(N)=O)NC(=O)[C@H](Cc2c[nH]c3ccccc23)NC(=O)[C@H](CCCNC(=N)N)NC(=O)[C@@H](Cc2ccccc2Cl)NC(=O)[C@H](CCN)NC1=O [Example 1, Ac-Arg-cyclo(Glu-Dab-D-Phe(2-Cl)-Arg-Trp-Orn)-NH2] | – | – | – | – | – | 3 | 1 | – | – | – | 0.34 | 91 | 0.045 | 96
COc1ccc(C[C@H]2NC(=O)[C@H](CCN)NC(=O)[C@@H](NC(=O)[C@H](CCCNC(=N)N)NC(C)=O)CCC(=O)NCCC[C@@H](C(N)=O)NC(=O)[C@H](Cc3c[nH]c4ccccc34)NC(=O)[C@H](CCCNC(=N)N)NC2=O)cc1 [Example 16, Ac-Arg-cyclo(Glu-Dab-D-Phe(4-OMe)-Arg-Trp-Orn)-NH2] | – | – | – | – | – | 0.25 | 0.15 | – | – | – | 0.15 | 28 | 0.16 | 97
CC(=O)N[C@@H](CCCNC(=N)N)C(=O)N[C@H]1CCC(=O)NCCC[C@@H](C(N)=O)NC(=O)[C@H](Cc2c[nH]c3ccccc23)NC(=O)[C@H](CCCNC(=N)N)NC(=O)[C@@H](Cc2ccccc2C(F)(F)F)NC(=O)[C@H](CCC(N)=O)NC1=O [Example 114, Ac-Arg-cyclo(Glu-Gln-D-Phe(2-CF3)-Arg-Trp-Orn)-NH2] | – | – | – | – | – | 8 | 93 | – | – | – | 1 | 73 | – | 117
CC(=O)N[C@@H](CCCNC(=N)N)C(=O)N[C@H]1CCC(=O)NCCC[C@@H](C(N)=O)NC(=O)[C@H](Cc2c[nH]c3ccccc23)NC(=O)[C@H](CCCNC(=N)N)NC(=O)[C@@H](Cc2ccccc2Cl)NC(=O)[C@H](COCc2ccccc2)NC1=O [Example 47, Ac-Arg-cyclo(Glu-Ser(Bzl)-D-Phe(2-Cl)-Arg-Trp-Orn)-NH2] | – | – | – | – | – | 0.3 | 25 | – | – | – | 0.31 | 36 | 0.373 | 100
CC(=O)N[C@@H](CCCNC(=N)N)C(=O)N[C@H]1CCC(=O)NCCC[C@@H](C(N)=O)NC(=O)[C@H](Cc2c[nH]c3ccccc23)NC(=O)[C@H](CCCNC(=N)N)NC(=O)[C@@H](Cc2cccc(F)c2)NC(=O)[C@H](CCN)NC1=O [Example 10, Ac-Arg-cyclo(Glu-Dab-D-Phe(3-F)-Arg-Trp-Orn)-NH2] | – | – | – | – | – | 2 | 2 | – | – | – | 0.45 | 77 | 0.17 | 94
CC(=O)N[C@@H](CCCNC(=N)N)C(=O)N[C@H]1CCC(=O)NCCC[C@@H](C(N)=O)NC(=O)[C@H](Cc2c[nH]c3ccccc23)NC(=O)[C@H](CCCNC(=N)N)NC(=O)[C@@H](Cc2cccc(Cl)c2)NC(=O)[C@@H]2C[C@@H](O)CN2C1=O [Example 37, Ac-Arg-cyclo(Glu-Hyp-D-Phe(3-Cl)-Arg-Trp-Orn)-NH2] | – | – | – | – | – | 2 | 430 | – | – | – | – | 6 | 0.55 | 90
CC(=O)N[C@@H](CCCNC(=N)N)C(=O)N[C@H]1CCC(=O)NCCC[C@@H](C(N)=O)NC(=O)[C@H](Cc2c[nH]c3ccccc23)NC(=O)[C@H](CCCNC(=N)N)NC(=O)[C@@H](Cc2ccccc2Cl)NC(=O)[C@H]([C@@H](C)OCc2ccccc2)NC1=O [Example 63, Ac-Arg-cyclo(Glu-Thr(Bzl)-D-Phe(2-Cl)-Arg-Trp-Orn)-NH2] | – | – | – | – | – | 0.35 | 12 | – | – | – | 0.37 | 30 | 0.157 | 93
CC(=O)N[C@@H](CCCNC(=N)N)C(=O)N[C@H]1CCC(=O)NCCC[C@@H](C(N)=O)NC(=O)[C@H](Cc2c[nH]c3ccccc23)NC(=O)[C@H](CCCNC(=N)N)NC(=O)[C@@H](Cc2ccccc2Cl)NC(=O)[C@H](CO)NC1=O [Example 31, Ac-Arg-cyclo(Glu-Ser-D-Phe(2-Cl)-Arg-Trp-Orn)-NH2] | – | – | – | – | – | 8 | 300 | – | – | – | 7 | 33 | – | 98
